In PubChem BioAssay AID1963432 (Molecular Pharmacology Branch, DTP, NCI, 2024):
Where “and” joins values, the source holds several entries; their conditions need not be identical. Equal values may be shown once. Values belong to the molecule of their own block, whether it stands above or below them.

Test system: SYO-1 complex spheroid growth, percent test/control
Assay: Anticancer human tumor SYO-1 cell line growth inhibition [Asc];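 further: compound exposure lasted 7 days after spheroids grew 3 days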;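 on viability, T/C: 100% = DMSO vehicle control viability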
Settings: for viability, T/C: stronger effect = lower value
Description: Multicellular complex tumor spheroid response to apoptosis pathway targeting inhibitors Alrizomadlin, Pelcitoclax, and Dasminapant in combination with a variety of drugs and investigational agents in selected tumor cell lines
The MDM2 inhibitor alrizomadlin, the Bcl-2/Bcl-xL inhibitor pelcitoclax, and the IAPs inhibitor dasminapant were evaluated both individually and in combination with standard of care and investigational anticancer small molecules within a complex spheroid model of solid tumors. . Complex spheroids include a stromal component modeled by human endothelial cells (HUVEC) and fibroblasts modeled by human mesenchymal stem cells (MSCs). The concentration ranges selected for each drug and investigational agent were based upon clinically achievable concentrations if the clinical Cmax of the agent was known.
Compounds. The drugs and investigational agents: alrizomadlin (APG-115; NSC831270), pelcitoclax (APG-1252; NSC835773), dasminapant (APG-1387;NSC834197), TAK-243 (NSC785004), copanlisib (NSC809693), olaparib (NSC753686), talazoparib (NSC767125), cobimetinib (NSC 768068), eltanexor (KPT-8602, NSC 794443), abemaciclib (NSC 768073), sotorasib (NSC818433), adagrasib (NSC 831453), MRTX-1133 (NSC 836407), Iadademestat (ORY1001, NSC 806812), and RMC-4630 (NSC839698), were obtained from the NCI Developmental Therapeutics Program Chemical Repository. The FDA-approved anticancer drug set is available from the Developmental Therapeutics Program at https://dtp.cancer.gov/organization/dscb/obtaining/available plates.htm. […] The stock solutions were prepared in dimethyl sulfoxide (DMSO, Sigma-Aldrich, St. Louis, MO, cat. D2650) at 800-fold the tested concentration and stored at -70 degrees C prior to their use. All drugs and investigational agents were tested over a range starting from a high concentration at or near the clinical Cmax and decreasing in half-log increments. If the clinical Cmax for an agent had not been determined, the highest concentration tested was 10 microM.
The patient-derived cancer (PDC) cell lines include five colon adenocarcinomas: 186277-243-T-J2-PDC, 616215-338-R-J1-PDC, 439559-082-T-J2-PDC, 463943-066-T-J2-PDC, and 519858-162-T-J1-PDC; three pancreatic carcinomas: 323965-272-R-J2-PDC, 521955-158-R6-J3-PDC, and 521955-158-R2-J5-PDC; two uterine sarcomas: 327498-152-R-J2-PDC and 993429-296-R-J1-PDC; two rhabdomyosarcomas: 755483-174-R-J1-PDC and 772245-204-R-J1-PDC; two soft tissue sarcomas: 126254-015-R-J1-PDC and 494315-158-R-J1-PDC; two malignant fibrous histiocytomas: 317291-083-R-J1-PDC and 596521-263-R-J1-PDC; two breast carcinomas: 171881-019-R-J1-PDC and 885512-296-R-J2-PDC; and one ovarian carcinoma: 6556581-035-R-J-PDC were obtained from the NCI PDMR, (https://pdmr.cancer.gov). The established cell lines HSSY-2 synovial sarcoma (RRID:CVCL 8719), SYO-1 synovial sarcoma (RRID:CVCL_7146), MPNST malignant peripheral neural sheath tumor were obtained from the Sloan Kettering Institute. The following established cell lines were purchased from the American Type Culture Collection (ATCC, Manassas, VA), Sor the received from the NCI repository:, PANC-1 pancreatic carcinoma (CRL-1469, RRID:CVCL_0480), OVCAR-5 ovarian carcinoma (RRID:CVCL_1628), OVCAR-8 ovarian carcinoma (RRID:CVCL_1629), , MCF-7 breast carcinoma (CRL-12584, RRID:CVCL_0031), MDA-MB-231 breast carcinoma (CRL-12532, RRID:CVCL_0062), NCI-H1876 small cell lung carcinoma (CRL-5902, RRID:CVCL_1503), NCI-H510A small cell lung carcinoma (HTB-184, RRID:CVCL_1565), NCI-H1417 (CRL-5869, RRID:CVCL_1469), and NCI-H196 small cell lung carcinoma (CRL-5823, RRID:CVCL_1509). Dr. Peter Houghton (Greehey Children's Cancer Research Institute, University of Texas Health Science Center, San Antonio, TX) provided Rh-18 rhabdomyosarcoma (RRID:CVCL_1659). Pooled donor human umbilical vein endothelial cells (HUVEC, Lonza, cat. CC-2519) and human mesenchymal stem cells (hMSC, Lonza, cat. PT-2501) were purchased from Lonza (Walkersville, MD).
Cell Culture. […]

- IC50 (curve of first compound, second compound 0.01 µM): 281 nM
- IC50 (curve of first compound, second compound 0.0316 µM): 290 nM
- IC50 (curve of first compound, second compound 0.1 µM): 260 nM
- IC50 (curve of first compound, second compound 0.316 µM): 238 nM
- IC50 (curve of first compound, second compound 1 µM): 199 nM
SMILES: NC(=O)C(=Cn1cnc(-c2cc(C(F)(F)F)cc(C(F)(F)F)c2)n1)c1cncnc1 + CNC(C)C(=O)NC1CN(S(=O)(=O)c2cccc(S(=O)(=O)N3CCC4CCC(C(=O)NC(c5ccccc5)c5ccccc5)N4C(=O)C(NC(=O)C(C)NC)C3)c2)CCC2CCC(C(=O)NC(c3ccccc3)c3ccccc3)N2C1=O
- viability, T/C (second compound 0.01 µM, first compound 0.000949 µM): 102%
- viability, T/C (second compound 0.01 µM, first compound 0.003 µM): 101%
- viability, T/C (second compound 0.01 µM, first compound 0.00949 µM): 111%
- viability, T/C (second compound 0.01 µM, first compound 0.03 µM): 104%
- viability, T/C (second compound 0.01 µM, first compound 0.0949 µM): 98%
- viability, T/C (second compound 0.01 µM, first compound 0.3 µM): 47.1%
- viability, T/C (second compound 0.0316 µM, first compound 0.000949 µM): 99.2%
- viability, T/C (second compound 0.0316 µM, first compound 0.003 µM): 105%
- viability, T/C (second compound 0.0316 µM, first compound 0.00949 µM): 106%
- viability, T/C (second compound 0.0316 µM, first compound 0.03 µM): 108%
- viability, T/C (second compound 0.0316 µM, first compound 0.0949 µM): 102%
- viability, T/C (second compound 0.0316 µM, first compound 0.3 µM): 48.4%
- viability, T/C (second compound 0.1 µM, first compound 0.000949 µM): 109%
- viability, T/C (second compound 0.1 µM, first compound 0.003 µM): 106%
- viability, T/C (second compound 0.1 µM, first compound 0.00949 µM): 102%
- viability, T/C (second compound 0.1 µM, first compound 0.03 µM): 97.6%
- viability, T/C (second compound 0.1 µM, first compound 0.0949 µM): 102%
- viability, T/C (second compound 0.1 µM, first compound 0.3 µM): 42.6%
- viability, T/C (second compound 0.316 µM, first compound 0.000949 µM): 103%
- viability, T/C (second compound 0.316 µM, first compound 0.003 µM): 110%
- viability, T/C (second compound 0.316 µM, first compound 0.00949 µM): 111%
- viability, T/C (second compound 0.316 µM, first compound 0.03 µM): 105%
- viability, T/C (second compound 0.316 µM, first compound 0.0949 µM): 105%
- viability, T/C (second compound 0.316 µM, first compound 0.3 µM): 36.3%
- viability, T/C (second compound 1 µM, first compound 0.000949 µM): 114%
- viability, T/C (second compound 1 µM, first compound 0.003 µM): 106%
- viability, T/C (second compound 1 µM, first compound 0.00949 µM): 111%
- viability, T/C (second compound 1 µM, first compound 0.03 µM): 105%
- viability, T/C (second compound 1 µM, first compound 0.0949 µM): 97.5%
- viability, T/C (second compound 1 µM, first compound 0.3 µM): 23.6%

- IC50 (curve of first compound, second compound 0.00949 µM): 165 nM
- IC50 (curve of first compound, second compound 0.03 µM): 134 nM
- IC50 (curve of first compound, second compound 0.0949 µM): 41.7 nM
- IC50 (curve of first compound, second compound 0.3 µM): < 0.949 nM
- IC50 (curve of first compound, second compound 0.949 µM): < 0.949 nM
- IC50 (curve of first compound, second compound 3 µM): < 0.949 nM
SMILES: NC(=O)C(=Cn1cnc(-c2cc(C(F)(F)F)cc(C(F)(F)F)c2)n1)c1cncnc1 + CCN1C(C(=O)NC23CCC(C(=O)O)(CC2)CC3)C(c2cccc(Cl)c2F)C2(C(=O)Nc3cc(Cl)ccc32)C12CCCCC2
- viability, T/C (second compound 0.00949 µM, first compound 0.000949 µM): 96.3%
- viability, T/C (second compound 0.00949 µM, first compound 0.003 µM): 96.1%
- viability, T/C (second compound 0.00949 µM, first compound 0.00949 µM): 99.3%
- viability, T/C (second compound 0.00949 µM, first compound 0.03 µM): 87.8%
- viability, T/C (second compound 0.00949 µM, first compound 0.0949 µM): 87.5%
- viability, T/C (second compound 0.00949 µM, first compound 0.3 µM): 9.44%
- viability, T/C (second compound 0.03 µM, first compound 0.000949 µM): 99.4%
- viability, T/C (second compound 0.03 µM, first compound 0.003 µM): 94.6%
- viability, T/C (second compound 0.03 µM, first compound 0.00949 µM): 90.1%
- viability, T/C (second compound 0.03 µM, first compound 0.03 µM): 90.5%
- viability, T/C (second compound 0.03 µM, first compound 0.0949 µM): 69.4%
- viability, T/C (second compound 0.03 µM, first compound 0.3 µM): 5.52%
- viability, T/C (second compound 0.0949 µM, first compound 0.000949 µM): 83.4%
- viability, T/C (second compound 0.0949 µM, first compound 0.003 µM): 80.9%
- viability, T/C (second compound 0.0949 µM, first compound 0.00949 µM): 76.6%
- viability, T/C (second compound 0.0949 µM, first compound 0.03 µM): 64.6%
- viability, T/C (second compound 0.0949 µM, first compound 0.0949 µM): 14.6%
- viability, T/C (second compound 0.0949 µM, first compound 0.3 µM): 1.56%
- viability, T/C (second compound 0.3 µM, first compound 0.000949 µM): 20.1%
- viability, T/C (second compound 0.3 µM, first compound 0.003 µM): 21.6%
- viability, T/C (second compound 0.3 µM, first compound 0.00949 µM): 12.9%
- viability, T/C (second compound 0.3 µM, first compound 0.03 µM): 8.55%
- viability, T/C (second compound 0.3 µM, first compound 0.0949 µM): 1.72%
- viability, T/C (second compound 0.3 µM, first compound 0.3 µM): 0.32%
- viability, T/C (second compound 0.949 µM, first compound 0.000949 µM): 2.25%
- viability, T/C (second compound 0.949 µM, first compound 0.003 µM): 1.92%
- viability, T/C (second compound 0.949 µM, first compound 0.00949 µM): 1.01%
- viability, T/C (second compound 0.949 µM, first compound 0.03 µM): 0.78%
- viability, T/C (second compound 0.949 µM, first compound 0.0949 µM): 0.55%
- viability, T/C (second compound 0.949 µM, first compound 0.3 µM): 1.54%
- viability, T/C (second compound 3 µM, first compound 0.000949 µM): 0.73%
- viability, T/C (second compound 3 µM, first compound 0.003 µM): 1.1%
- viability, T/C (second compound 3 µM, first compound 0.00949 µM): 0.93%
- viability, T/C (second compound 3 µM, first compound 0.03 µM): 1.16%
- viability, T/C (second compound 3 µM, first compound 0.0949 µM): 1.19%
- viability, T/C (second compound 3 µM, first compound 0.3 µM): 2%

- IC50 (curve of compound): 741 nM and 900 nM and > 1000 nM
SMILES: COc1c(OCCCN2CCOCC2)ccc2c3n(c(=NC(=O)c4cnc(N)nc4)nc12)CCN3
- viability, T/C (compound 0.00316 µM): 111% and 102% and 109%
- viability, T/C (compound 0.01 µM): 105% and 112% and 114%
- viability, T/C (compound 0.0316 µM): 95.3% and 108% and 113%
- viability, T/C (compound 0.1 µM): 95.4% and 101% and 107%
- viability, T/C (compound 0.316 µM): 76.1% and 87.7% and 90.5%
- viability, T/C (compound 1 µM): 40.2% and 46.1% and 63.6%

- IC50 (curve of compound): 2500 nM and 3100 nM and 4810 nM
SMILES: O=C(c1cc(Cc2n[nH]c(=O)c3ccccc23)ccc1F)N1CCN(C(=O)C2CC2)CC1
- viability, T/C (compound 0.0316 µM): 96.5% and 98.2% and 111%
- viability, T/C (compound 0.1 µM): 91.4% and 91.9% and 103%
- viability, T/C (compound 0.316 µM): 102% and 99.6% and 101%
- viability, T/C (compound 1 µM): 96.7% and 105% and 95.2%
- viability, T/C (compound 3.16 µM): 38% and 49.1% and 73.5%
- viability, T/C (compound 10 µM): 6.76% and 6.7% and 10.1%
